Laboratory results: patent US20170150719A1, “FUNGICIDAL PYRAZOLES AND THEIR MIXTURES” (E I DU PONT DE NEMOURS AND COMPANY, priority 2010, published 2017)
Marks after values point to notes of the source that are not given here.

Assays:
Botrytis cinerea = test: Test A: tomato Botrytis, preventive spray on tomato seedlings, visual disease rating; conditions: 100 = 100% disease control; for pest or weed control at 200 µg/mL: Botrytis cinerea, in Solanum lycopersicum, read-out: Test A rating (disease control), tomato Botrytis; for pest or weed control at 200 µg/mL / Test A rating (disease control): 0 = no disease control relative to the controls; for Test A rating (disease control) / Test A rating (% disease control): tomato Botrytis; for Test A rating (% disease control): preventive spray, 0 = no control relative to controls, rating without asterisk
Procedure: (§2) General protocol for preparing test suspensions for Tests A-I: the test compounds were first dissolved in acetone in an amount equal to 3% of the final volume and then suspended at the desired concentration (in ppm) in acetone and purified water (50/50 mix by volume) containing 250 ppm of the surfactant Trem® 014 (polyhydric alcohol esters). The resulting test suspensions were then used in Tests A-I. Each test was conducted in triplicate, and the results were averaged. Spraying a 200 ppm test suspension to the point of run-off on the test plants was the equivalent of a rate of about 800 g/ha. Unless otherwise indicated, the rating values indicate a 200 ppm test suspension was used. (An asterisk “*” next to the rating value indicates a 40 ppm test suspension was used.)
The test suspension was sprayed to the point of run-off on tomato seedlings. The following day the seedlings were inoculated with a spore suspension of Botrytis cinerea (the causal agent of tomato Botrytis) and incubated in saturated atmosphere at 20° C. for 48 h, and then moved to a growth chamber at 24° C. for 3 additional days, after which time visual disease ratings were made.

[1] = test system: Puccinia recondita f. sp. tritici; test: Test G: wheat leaf rust, spray after inoculation (curative) on wheat seedlings, visual disease rating; type: in vivo; conditions: 100 = 100% disease control; for pest or weed control at 200 µg/mL / Test G rating (disease control): sprayed after inoculation, 0 = no disease control; for Test G rating (% disease control): spray after inoculation, rating without asterisk
Source text: (§1) A hyphen (-) indicates no test results.

Septoria nodorum = test: Test E: Septoria glume blotch, preventive spray on wheat seedlings, visual disease rating; conditions: 100 = 100% disease control; for pest or weed control at 200 µg/mL: Parastagonospora nodorum, in Triticum aestivum, read-out: Test E rating (disease control), Septoria glume blotch; for pest or weed control at 200 µg/mL / Test E rating (disease control): 0 = no disease control relative to the controls; for Test E rating (disease control): Septoria glume blotch; for Test E rating (% disease control): Septoria glume blotch on wheat, preventive spray, rating without asterisk
[2] = test system: Puccinia recondita f. sp. tritici; test: Test H: wheat leaf rust, preventive spray on wheat seedlings, visual disease rating; conditions: 100 = 100% disease control; for pest or weed control at 200 µg/mL: read-out: Test H rating (disease control), wheat leaf rust, sprayed the day before inoculation; for pest or weed control at 200 µg/mL / Test H rating (disease control): 0 = no disease control; for Test H rating (disease control) / Test H rating (% disease control): wheat leaf rust; for Test H rating (disease control): sprayed the day before inoculation; for Test H rating (% disease control): preventive spray, rating without asterisk
Procedure: as §2
The test suspension was sprayed to the point of run-off on wheat seedlings. The following day the seedlings were inoculated with a spore suspension of Puccinia recondita f. sp. tritici (the causal agent of wheat leaf rust) and incubated in a saturated atmosphere at 20° C. for 24 h, and then moved to a growth chamber at 20° C. for 6 days, after which time visual disease ratings were made.

[3] = test system: Blumeria graminis f. sp. tritici; test: Test I: wheat powdery mildew, preventive spray on wheat seedlings, visual disease rating; conditions: for pest or weed control at 200 µg/mL: Blumeria graminis, in Triticum aestivum, read-out: Test I rating (disease control), wheat powdery mildew; for pest or weed control at 200 µg/mL / Test I rating (disease control) / Test I rating (% disease control): 100 = 100% disease control; for pest or weed control at 200 µg/mL / Test I rating (disease control): 0 = no disease control relative to the controls; for Test I rating (% disease control): preventive spray, rating without asterisk
Septoria tritici = test: Test F: wheat leaf blotch, preventive spray on wheat seedlings, visual disease rating; type: in vivo; design: Test F rating (disease control), value marked *: concentration or dose not given beside the values; conditions: for pest or weed control at 200 µg/mL: Zymoseptoria tritici; for pest or weed control at 200 µg/mL / Test F rating (disease control) / Test F rating (% disease control): 100 = 100% disease control; for pest or weed control at 200 µg/mL / Test F rating (disease control): 0 = no disease control relative to the controls; for Test F rating (% disease control): preventive spray, rating without asterisk
Source text: as §1

Alternaria solani = test: Test B: tomato early blight, preventive spray on tomato seedlings, visual disease rating; conditions: for pest or weed control at 200 µg/mL: Alternaria solani, in Solanum lycopersicum, read-out: Test B rating (disease control); for Test B rating (disease control) / Test B rating (% disease control): tomato early blight, 100 = 100% disease control; for Test B rating (disease control): 0 = no disease control relative to the controls; for Test B rating (% disease control): preventive spray, rating without asterisk

SMILES | Test A rating (disease control) (Botrytis cinerea) [%] | Test G rating (disease control) [1] [%] | Test E rating (disease control) (Septoria nodorum) [%] | Test H rating (disease control) [2] [%] | Test I rating (disease control) ([3]; wheat powdery mildew) [%] | Test F rating (disease control) (Septoria tritici) [%] | Test B rating (disease control) (Alternaria solani) [%] | further results
Cc1nn(C)c(Nc2c(F)cc(F)cc2Br)c1-c1ccc(F)cc1Cl [Compound 144, N-(2-bromo-4,6-difluorophenyl)-4-(2-chloro-4-fluorophenyl)-1,3-dimethyl-1H-pyrazol-5-amine] |  |  |  |  |  |  |  | pest or weed control at 200 µg/mL (Botrytis cinerea): 100%; pest or weed control at 200 µg/mL [1]: 100%; pest or weed control at 200 µg/mL (Septoria nodorum): 100%; pest or weed control at 200 µg/mL [2]: 100%; pest or weed control at 200 µg/mL [3]: 100%; pest or weed control at 200 µg/mL (Septoria tritici): 100%; pest or weed control at 200 µg/mL (Alternaria solani): 99%
Cc1nn(C)c(Oc2ccc(C#N)cc2Cl)c1-c1ccc(F)cc1F [Compound 140, 3-chloro-4-[[4-(2,4-difluorophenyl)-1,3-dimethyl-1H-pyrazol-5-yl]oxy]benzonitrile] |  |  |  |  |  |  |  | pest or weed control at 200 µg/mL (Botrytis cinerea): 67%; pest or weed control at 200 µg/mL [1]: 9%; pest or weed control at 200 µg/mL (Septoria nodorum): 0%; pest or weed control at 200 µg/mL [2]: 97%; pest or weed control at 200 µg/mL [3]: 97%; pest or weed control at 200 µg/mL (Septoria tritici): 100%; pest or weed control at 200 µg/mL (Alternaria solani): 0%
Cc1nn(C)c(Oc2c(F)cc(C#N)cc2F)c1-c1ccc(F)cc1Br [Compound 65, 4-[[4-(2-bromo-4-fluorophenyl)-1,3-dimethyl-1H-pyrazol-5-yl]oxy]-3,5-difluorobenzonitrile] |  |  |  |  |  |  |  | pest or weed control at 200 µg/mL (Botrytis cinerea): 100%; pest or weed control at 200 µg/mL [1]: 0%; pest or weed control at 200 µg/mL (Septoria nodorum): 99%; pest or weed control at 200 µg/mL [2]: 100%; pest or weed control at 200 µg/mL [3]: 100%; pest or weed control at 200 µg/mL (Septoria tritici): 100%; pest or weed control at 200 µg/mL (Alternaria solani): 99%
CCOc1cc(F)c(-c2c(C)nn(C)c2Nc2ccc(F)cc2F)c(F)c1 [compound 39] | 99 | 0 | 98 | 99 | 100 | 100 | 99 | 
Cc1nn(C)c(Nc2c(Cl)cc(Cl)cc2Cl)c1-c1ccc(F)cc1Br [compound 174] | 95 | 0 | 0 | 99 |  | 100 | 0 | Test I rating (disease control), value marked * ([3]; wheat powdery mildew, rating marked with asterisk (*), not explained in the text shown): 99* %
Cc1nn(C)c(Nc2ccc(Cl)cc2Cl)c1-c1c(F)cccc1Cl [compound 78] | 99 | 9 | 0 | 99 | 100 |  | 65 | Test F rating (disease control), value marked * (Septoria tritici; rating marked with asterisk (*), other test condition, not explained in the text shown): 99* %
Cc1nn(C)c(Nc2ccc(F)cc2F)c1-c1ccc(C#N)cc1Cl [compound 107] | 100 | 8 | 73 | 100 | 97 | 100 | 80 | 
Cc1nn(C)c(Nc2c(F)cc(Cl)cc2Cl)c1-c1ccc(F)cc1F [Compound 141, N-(2,4-dichloro-6-fluorophenyl)-4-(2,4-difluorophenyl)-1,3-dimethyl-1H-pyrazol-5-amine] |  |  |  |  |  |  |  | pest or weed control at 200 µg/mL (Botrytis cinerea): 99%; pest or weed control at 200 µg/mL [1]: 97%; pest or weed control at 200 µg/mL (Septoria nodorum): 99%; pest or weed control at 200 µg/mL [2]: 100%; pest or weed control at 200 µg/mL [3]: 100%; pest or weed control at 200 µg/mL (Septoria tritici): 100%; pest or weed control at 200 µg/mL (Alternaria solani): 99%
Cc1nn(C)c(Nc2c(F)cccc2F)c1-c1c(F)cccc1F [compound 69] | 100 | 0 | 60 | 99 | 100 | 100 | 99 | 
Cc1nn(C)c(Nc2ccc(F)cc2I)c1-c1ccc(F)cc1Cl [compound 181] |  |  |  |  |  |  |  | Test A rating (% disease control) (Botrytis cinerea): 100%; Test G rating (% disease control) [1]: 99%; Test E rating (% disease control) (Septoria nodorum): 99%; Test H rating (% disease control) [2]: 99%; Test I rating (% disease control) ([3]; wheat powdery mildew): 100%; Test F rating (% disease control) (Septoria tritici): 100%; Test B rating (% disease control) (Alternaria solani): 99%
COc1ccc(-c2c(C)nn(C)c2Oc2c(F)cc(C#N)cc2F)c(Cl)c1 [compound 41] | 100 | 92 | 100 | 100 | 99 | 100 | 99 | 
Cc1nn(C)c(Nc2c(F)cc(C#N)cc2F)c1-c1c(F)cc(F)cc1F [compound 26] | 100 | 41 | 99 | 99 | 100 | 100 | 100 | 
Cc1nn(C)c(Nc2ccc(F)cc2F)c1-c1c(Cl)cccc1Cl [compound 113] | 100 | 0 | 0 | 98 | 100 | 100 | 0 | 
Cc1nn(C)c(Nc2ccc(Cl)cc2Cl)c1-c1c(F)cccc1F [compound 50] | 100 | 0 | 73 | 93 | 100 | 95 | 99 | 
Cc1nn(C)c(Nc2c(F)cc(C#N)cc2F)c1-c1c(F)cccc1F [compound 90] | 99 | 0 | 87 | 98 | 99 | 100 | 87 | 
COc1ccc(-c2c(C)nn(C)c2Nc2c(F)cc(F)cc2Br)c(Cl)c1 [compound 221] |  |  |  |  |  |  |  | Test A rating (% disease control) (Botrytis cinerea): 100%; Test G rating (% disease control) [1]: 73%; Test E rating (% disease control) (Septoria nodorum): 97%; Test H rating (% disease control) [2]: 99%; Test I rating (% disease control) ([3]; wheat powdery mildew): 100%; Test F rating (% disease control) (Septoria tritici): 100%; Test B rating (% disease control) (Alternaria solani): 100%
COc1ccc(-c2c(C)nn(C)c2Nc2c(F)cccc2F)c(Cl)c1 [compound 43] | 98 | 95 | 0 | 100 | 98 | 100 | 100 | 
Cc1nn(C)c(Nc2c(F)cc(C#N)cc2F)c1-c1ccc(F)cc1F [compound 83] | 100 | 0 | 87 | 100 | 100 | 100 | 99 | 
Cc1nn(C)c(Nc2c(F)cc(F)cc2F)c1-c1c(F)cc(C#N)cc1F [compound 35] | 100 | 0 | 60 | 100 | 94 | 99 | 100 | 
Cc1nn(C)c(Nc2c(Cl)cc(F)cc2Cl)c1-c1ccc(Cl)cc1F [compound 227] |  |  |  |  |  |  |  | Test A rating (% disease control) (Botrytis cinerea): 0%; Test G rating (% disease control) [1]: 0%; Test E rating (% disease control) (Septoria nodorum): 0%; Test H rating (% disease control) [2]: 95%; Test I rating (% disease control) ([3]; wheat powdery mildew): 96%; Test F rating (% disease control) (Septoria tritici): 100%; Test B rating (% disease control) (Alternaria solani): 0%
Cc1nn(C)c(Oc2ccc(C#N)cc2F)c1-c1c(F)cccc1F [Compound 130, 4-[[4-(2,6-difluorophenyl)-1,3-dimethyl-1H-pyrazol-5-yl]oxy]-3-fluorobenzonitrile] |  |  |  |  |  |  |  | pest or weed control at 200 µg/mL (Botrytis cinerea): 100%; pest or weed control at 200 µg/mL [1]: 0%; pest or weed control at 200 µg/mL (Septoria nodorum): 0%; pest or weed control at 200 µg/mL [2]: 100%; pest or weed control at 200 µg/mL [3]: 100%; pest or weed control at 200 µg/mL (Septoria tritici): 100%; pest or weed control at 200 µg/mL (Alternaria solani): 90%
